Assay results reported in article PMC12501849, “Design, synthesis and evaluation of arylpurine-based sinefungin mimetics as zika virus methyltransferase inhibitors” (RSC Advances, 2025).
“Also recorded” adds a separate entry of the source.

What was measured:
[1] = Cytotoxicity in non-infected VeroE6 cells; format: cell-based, African green monkey; conditions: African green monkey, non-infected, 50% cytotoxic concentration
Method: (§1) Assessment of the antiviral activity against ZIKV in VeroE6 cells (African green monkey kidney cells; Vero 76, clone E6; ATCC: Cat# CRL-1586) was done as previously described.[35] The antiviral assays in the neuroblastoma SH-SY5Y cells (CRL-2266; ATCC) were conducted as follows: SH-SY5Y cells were seeded in assay medium (MEM supplemented with 2% fetal bovine serum, 2 mM L-glutamine and 0.075% sodium bicarbonate; all from Thermo Fisher Scientific) at a density of 15 000 cells/well in 96-well plates. Cells were incubated overnight at 37 °C and 5% CO2. The next day, a serial dilution of the compounds was added to the cells, followed by inoculation of the cells with ZIKV MR766 (MOI = 0.01). Following a 7-day incubation at 37 °C and 5% CO2, ZIKV-induced cytopathic effect was determined by means of the MTS readout method, analogous to the assay with the VeroE6 cells.[35] The 50% effective concentration (the compound concentration that is required to inhibit virus-induced CPE by 50%; EC50) and the 50% cytotoxic concentration (i.e. the compound concentration that is required to inhibit the cell growth by 50%; CC50) was determined using logarithmic interpolation.

[2] = tested on: ZIKV MR766; experiment: Antiviral assay against ZIKV in SH-SY5Y cells (CPE, MTS readout); format: cell-based, zika virus; conditions: Zika virus, 168 h; SH-SY5Y cells; ZIKV MR766, MOI 0.01, 7-day incubation
Method: (§2) These compounds were next evaluated for their antiviral effect on ZIKV replication in Vero E6 and SH-SY5Y cells. 7-Deaza-2′-C-methyladenosine (7DMA), a viral polymerase inhibitor,[35] was included as a positive control.
Besides the standard assays in VeroE6 cells, the compounds were also tested in SH-SY5Y cells. […] Thus, they function as a relevant neuronal cell-based model of ZIKV infection.[38]
as §1

[3] = tested on: ZIKV; experiment: Antiviral assay against ZIKV in VeroE6 cells (CPE, MTS readout); format: cell-based, zika virus; conditions: for EC50: Zika virus, Vero C1008, VeroE6 cells, concentration that protects 50% of the cells from virus-induced cytopathic effect; for Antiviral activity against ZIKV (in words): cell-based assay
Method: as §2, §1

[4] = target: T1, ZIKV MTase (Zika virus, UniProt A0A024B7W1); experiment: Filter binding assay (FBA), ZIKV 2′-O-MTase activity; format: biochemical; conditions: for inhibition at 50 µM: 2′-O-MTase activity, compound at 50 μM, read-out: Percentage of inhibition of ZIKV MTase; for Effect on 2′-O-MTase activity of ZIKV (in words): tested at 50 μM
T1 construct: the ZIKV NS5 MTase (aa 4-278) domain were synthesized (Genscript); His6 (N); made in house; host or cells: Escherichia coli T7 Express Iq
Method: (§3) The synthesized arylpurines were evaluated for their inhibitory activity against the 2′-O-MTase activity of ZIKV and DENV3 MTases by quantification of [^3H]-methyl transfer from the [^3H]-SAM on short synthetic capped RNA (GpppAC4), by using a filter binding assay (FBA).[13,33] The universal methyltransferase inhibitor sinefungin was included as a positive control (Table 1), whose IC50 value against ZIKV MTase has already been reported using a similar assay.[13] We assessed MTase inhibition by testing the synthesized compounds at a concentration of 50 μM.
(§4) Proteins were produced and purified as previously described.[13] Briefly, the coding sequence of ZIKV NS5 (aa 4-903) and the ZIKV NS5 MTase (aa 4-278) domain were synthesized (Genscript) based on the sequence of the ZIKV strain H/PF/2013 (GenBank accession no. KJ776791.2) and then cloned into a pQE30 (Qiagen) plasmid with an N-terminal His6 tag. The MTase domains (aa 4-278 and aa 1-264) were produced in Escherichia coli T7 Express Iq (New England BioLabs). Cells were grown in Terrific Broth at 37 °C until the optical density at 600 nm (OD600) reached 0.6. Protein expression was then induced by 0.5 mM IPTG (isopropyl-β-D-thiogalactopyranoside) at 17 °C overnight. Bacteria were harvested by centrifugation. The bacterial pellets from a 2-liter bacterial culture were resuspended in 100 ml lysis buffer (50 mM Tris–HCl [pH 8], 300 mM NaCl, 5% glycerol, 0.1% Triton, 10 μg per ml DNase I, 2 tablets of EDTA-free antiprotease cocktail [Roche], 0.25 mg per ml lysozyme). After 30 min of incubation at 4 °C, cells were sonicated and clarified by centrifugation prior to immobilized metal affinity chromatography (IMAC) purification on a 5-mL His prep column (GE Healthcare), with elution in 50 mM Tris–HCl, 300 mM NaCl, and 250 mM imidazole (pH 8.0). The eluted protein was then loaded on a 16/60 Superdex 200 (GE Healthcare) equilibrated in a mixture of 10 mM HEPES, 500 mM NaCl, glycerol 5%, and 1 mM dithiothreitol (DTT [pH 7.5]).
(§5) The FBA MTase assay was carried out in a reaction mixture [40 mM Tris–HCl (pH 8.0), 1 mM DTT, 1.9 μM SAM, and 0.1 μM ^3H-SAM (PerkinElmer)] in the presence of 0.7 μM GpppAC4 synthetic RNA and the MTase (500 nM), according to the method previously described.[39] Briefly, the MTase was first mixed with the compound suspended in DMSO (5% final DMSO) before the addition of RNA substrate and SAM and then incubated at 30 °C. Reactions mixtures were stopped after 30 min by their 10-fold dilution in ice-cold water. Samples were transferred to diethylaminoethyl (DEAE) filtermat (PerkinElmer) using a Filtermat Harvester (Packard Instruments). The RNA-retaining mats were washed twice with 10 mM ammonium formate pH 8.0, twice with water and once with ethanol. They were soaked with scintillation fluid (PerkinElmer), and ^3H-methyl transfer to the RNA substrates was determined using a Wallac MicroBeta TriLux liquid scintillation counter (PerkinElmer).

[5] = target: T2, DENV3 MTase (Dengue virus type 3, UniProt P27915); experiment: Filter binding assay (FBA), DENV3 2′-O-MTase activity; format: biochemical; conditions: for inhibition at 50 µM: 2′-O-MTase activity, compound at 50 μM, read-out: Percentage of inhibition of DENV3 MTase; for Effect on 2′-O-MTase activity of DENV3 (in words): tested at 50 μM
T2 construct: the MTase activity is located at the N-terminal of the viral NS5 protein; made in house
Method: as §3, §4, §5

[6] = Cytotoxicity in non-infected SH-SY5Y cells; format: cell-based; conditions: human, SH-SY5Y neuroblastoma cells, 50% cytotoxic concentration
Method: as §1

[7] = Stability towards spontaneous cyclization in PBS : DMSO followed by HPLC; format: physicochemical; conditions: PBS : DMSO (95 : 5), HPLC over a 24-hour period
Method: Then, compound 28 was treated with TFA at 70 °C to remove the tert-butyl ester and the p-methoxybenzyl group. Analysis of the reaction by HPLC/MS after 1 h indicated a mixture of two compounds with m/z = 695 and m/z = 575, that might correspond to cyclized products with and without the p-methoxybenzyl group at position 6 (see Fig. S3 at the SI). […] In exploring alternative methods for removing the PMB group, we came across a report by Sako et al., which described the oxidative debenzylation of 6-N-benzyladenosines under neutral pH conditions.[32] Since our compounds are more lipophilic than the nucleosides described by […], we changed the PBS : CH3CN ratio from 2 : 1, as described, to 1 : 1 to favor the solubility of our compounds. Additionally, we used microwave irradiation to shorten the reaction times. Thus, treatment of 27 with […] in PBS : CH3CN (1 : 1) at 80 °C for 45 min under MW irradiation led to the removal of the p-methoxybenzyl group, as detected by HPLC/MS. Further treatment of the reaction product with piperidine afforded 29 (25% yield over the 2 steps). A similar reaction sequence applied to 28 led to compound 30 (21% yield). […] Finally, treatment of 29 and 30 with TFA in DCM at rt afforded compounds 31 and 32 in 73% and 62% yields, respectively. To rule out the possibility of spontaneous cyclization following removal of both protecting groups from the amino acid, compounds 21, 31 and 32 were dissolved in a PBS : DMSO (95 : 5) mixture.

T2 sequence (P27915 2492-2753): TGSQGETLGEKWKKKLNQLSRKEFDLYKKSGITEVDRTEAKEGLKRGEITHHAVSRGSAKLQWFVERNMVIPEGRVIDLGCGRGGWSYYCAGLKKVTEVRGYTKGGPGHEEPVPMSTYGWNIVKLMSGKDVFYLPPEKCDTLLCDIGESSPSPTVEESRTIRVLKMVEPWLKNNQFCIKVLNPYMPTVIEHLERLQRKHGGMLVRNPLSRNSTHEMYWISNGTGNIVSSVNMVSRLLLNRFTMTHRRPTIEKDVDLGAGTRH
T1 sequence (A0A024B7W1 2524-2798): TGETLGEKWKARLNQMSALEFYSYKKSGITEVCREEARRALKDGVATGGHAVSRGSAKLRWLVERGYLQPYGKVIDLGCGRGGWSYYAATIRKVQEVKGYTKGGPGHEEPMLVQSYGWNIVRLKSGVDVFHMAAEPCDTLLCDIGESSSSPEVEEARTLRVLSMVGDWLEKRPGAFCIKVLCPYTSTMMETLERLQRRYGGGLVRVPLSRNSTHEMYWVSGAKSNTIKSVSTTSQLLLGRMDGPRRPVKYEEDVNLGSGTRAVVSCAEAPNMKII

CC(C)(C)OC(=O)[C@@H](N)CC(=O)Nc1cccc(-n2cnc3c(N)ncnc32)c1 [Compound 29, tert-Butyl N^4-(3-(6-amino-9H-purin-9-yl)phenyl)-L-asparaginate]
CC50 [1]: > 100 µM
EC50 [2]: > 100 µM
EC50 [3]: > 100 µM
Antiviral activity against ZIKV (in words) [3]: no antiviral activity
inhibition at 50 µM [4]: ~20%
Effect on 2′-O-MTase activity of ZIKV (in words) [4]: inhibited; also recorded: some inhibition
inhibition at 50 µM [5]: ~20%
Effect on 2′-O-MTase activity of DENV3 (in words) [5]: some inhibition
CC50 at 7 days [6]: > 100 µM

Cc1ncnc2c1ccn2-c1cccc(NC(=O)C[C@H](N)C(=O)OC(C)(C)C)c1 [Compound 20, tert-Butyl N^4-(3-(4-methyl-7H-pyrrolo[2,3-d]pyrimidin-7-yl)phenyl)-L-asparaginate]
CC50 [1]: > 33 µM
EC50 [2]: > 100 µM
EC50 [3]: > 100 µM
inhibition at 50 µM [4]: 0%
Effect on 2′-O-MTase activity of ZIKV (in words) [4]: no effect
inhibition at 50 µM [5]: 0%
Effect on 2′-O-MTase activity of DENV3 (in words) [5]: no effect
CC50 at 7 days [6]: > 100 µM

C[C@@]1(O)[C@H](O)[C@@H](CO)O[C@H]1n1ccc2c(N)ncnc21 [Compound 7DMA, 7-Deaza-2′-C-methyladenosine, reference compound]
CC50 [1]: > 200 µM
EC50 [2]: 33.7 ± 5.1 µM
EC50 [3]: 9 ± 0.2 µM
CC50 at 7 days [6]: > 50 µM

Cc1ncnc2c1ccn2-c1cccc(NC(=O)C[C@H](N)C(=O)O)c1 [Compound 21, N ^4-(3-(4-Methyl-7H-pyrrolo[2,3-d]pyrimidin-7-yl)phenyl)-L-asparagine]
CC50 [1]: > 100 µM
EC50 [2]: > 100 µM
EC50 [3]: > 100 µM
inhibition at 50 µM [4]: 0%
Effect on 2′-O-MTase activity of ZIKV (in words) [4]: no effect
inhibition at 50 µM [5]: 0%
Effect on 2′-O-MTase activity of DENV3 (in words) [5]: no effect
CC50 at 7 days [6]: > 100 µM
Stability (no spontaneous cyclization) [7]: remained intact

COc1ccc(NC(=O)C[C@H](N)C(=O)OC(C)(C)C)cc1-n1cnc2c(N)ncnc21 [Compound 30, tert-Butyl N^4-(3-(6-amino-9H-purin-9-yl)-4-methoxyphenyl)-L-asparaginate]
CC50 [1]: > 100 µM
EC50 [2]: > 100 µM
EC50 [3]: > 100 µM
inhibition at 50 µM [4]: 0%
Effect on 2′-O-MTase activity of ZIKV (in words) [4]: no effect
inhibition at 50 µM [5]: 0%
Effect on 2′-O-MTase activity of DENV3 (in words) [5]: no effect
CC50 at 7 days [6]: > 100 µM

CC(C)(C)CCN(CC[C@H](N)C(=O)O)c1cccc(-n2cnc3c(N)ncnc32)c1 [Compound 10, (S)-2-Amino-4-((3-(6-amino-9H-purin-9-yl)phenyl)(3,3-dimethylbutyl)amino)butanoic acid]
CC50 [1]: > 100 µM
EC50 [2]: > 100 µM
EC50 [3]: > 100 µM
inhibition at 50 µM [4]: 0%
Effect on 2′-O-MTase activity of ZIKV (in words) [4]: no effect
inhibition at 50 µM [5]: 0%
Effect on 2′-O-MTase activity of DENV3 (in words) [5]: no effect
CC50 at 7 days [6]: > 100 µM

COc1ccc(NC(=O)C[C@H](N)C(=O)O)cc1-n1cnc2c(N)ncnc21 [Compound 32, N ^4-(3-(6-Amino-9H-purin-9-yl)-4-methoxyphenyl)-L-asparagine]
CC50 [1]: > 100 µM
EC50 [2]: > 100 µM
EC50 [3]: > 100 µM
inhibition at 50 µM [4]: 0%
Effect on 2′-O-MTase activity of ZIKV (in words) [4]: no effect
inhibition at 50 µM [5]: 0%
Effect on 2′-O-MTase activity of DENV3 (in words) [5]: no effect
CC50 at 7 days [6]: > 100 µM
Stability (no spontaneous cyclization) [7]: remained intact

Cc1ncnc2c1ccn2-c1cccc(N(CC[C@H](N)C(=O)O)CCC(C)(C)C)c1 [Compound 14, (S)-2-Amino-4-((3,3-dimethylbutyl)(3-(4-methyl-7H-pyrrolo[2,3-d]pyrimidin-7-yl)phenyl)amino)butanoic acid]
CC50 [1]: > 100 µM
EC50 [2]: > 100 µM
EC50 [3]: > 100 µM
inhibition at 50 µM [4]: 0%
Effect on 2′-O-MTase activity of ZIKV (in words) [4]: no effect
inhibition at 50 µM [5]: 0%
Effect on 2′-O-MTase activity of DENV3 (in words) [5]: no effect
CC50 at 7 days [6]: > 100 µM

Cc1ncnc2c1ccn2-c1cccc(N(CC[C@H](NC(=O)OC(C)(C)C)C(N)=O)CCC(C)(C)C)c1 [Compound 17, tert-Butyl (S)-(1-amino-4-((3,3-dimethylbutyl)(3-(4-methyl-7H-pyrrolo[2,3-d]pyrimidin-7-yl)phenyl)amino)-1-oxobutan-2-yl)carbamate]
CC50 [1]: 22.8 ± 0.5 µM
EC50 [2]: > 100 µM
EC50 [3]: > 100 µM
inhibition at 50 µM [4]: 11.1%
Effect on 2′-O-MTase activity of ZIKV (in words) [4]: modest inhibition
inhibition at 50 µM [5]: 7.2%
Effect on 2′-O-MTase activity of DENV3 (in words) [5]: modest inhibition
CC50 at 7 days [6]: 7 µM

Nc1ncnc2c1ncn2-c1cccc(NC(=O)C[C@H](N)C(=O)O)c1 [Compound 31, N ^4-(3-(6-Amino-9H-purin-9-yl)phenyl)-L-asparagine]
CC50 [1]: > 100 µM
EC50 [2]: > 100 µM
EC50 [3]: > 100 µM
Antiviral activity against ZIKV (in words) [3]: no antiviral activity
inhibition at 50 µM [4]: ~20%
Effect on 2′-O-MTase activity of ZIKV (in words) [4]: inhibited; also recorded: some inhibition
inhibition at 50 µM [5]: ~20%
Effect on 2′-O-MTase activity of DENV3 (in words) [5]: some inhibition
CC50 at 7 days [6]: > 100 µM
Stability (no spontaneous cyclization) [7]: remained intact
